According to patent US10314821B2, “Crystalline forms of 4-cyano-N-(2-(4,4-dimethylcyclohex-1-en-1-yl)-6-(2,2,6,6-tetramethyltetrahydro-2H-pyran-4-yl)pyridin-3-yl)-1H-imidazole-2-carboxamide” (Janssen Pharmaceutica NV, priority 2016, dated 2019):
Blank lines part the entries; values can stand above or below the molecule they belong to.

Key:
Format in all cases: physicochemical
[1] = Competitive slurry studies in water, form by XRPD
Procedure: Competitive slurry studies of Compound A, Forms II, IIA, IIB, III, IV, V, and VI were conducted at RT (room temperature, about 20° C.) and 50° C. in water. […] A small portion of the slurry was transferred to 50° C. after 2 days and analyzed using powder X-ray after being slurred at 50° C. for 2 hours (where a sample of the slurry was placed on an XRPD sample holder, the solvent allowed to evaporate under ambient conditions to yield a residue, and an XRPD measured for the residue). Complete conversion to Form I took place within 2 hours of heating.

[2] = Visual solubility of Compound A, Form I in solvents; conditions: 50 mg in 10 mL, stirred, heated to 40° C.; for solubility: organic solvent or mixture, thermodynamic from solid
Excerpt: An automated solid-state form screening of Compound A was done using a binary solvent system. Screening experiments consisted of an array of 13 solvents (water, methanol, ethanol, acetone, acetonitrile, isopropyl alcohol, ethyl acetate, toluene, tetrahydrofuran (THF), dichloromethane, 2-butanone (MEK), 1-butanol, and heptane) under slow evaporation crystallization conditions. Specifically, saturated solutions of Compound A (prepared as described in Example 1 above) in 13 different solvents were prepared by adding solid powder of Compound A, Form I (50 mg, prepared as described in Example 1 above) and the selected solvent to 20 mL vials. The resulting solutions were stirred and heated to 40° C. All preparations dissolved quickly except in water, toluene, and heptane. Table 1 provides a summary of the visual solubility of Compound A, Form I in the noted solvents.

[3] = Slurry studies in organic solvents, form by XRPD
Procedure: Small scale saturated solutions of Compound A, Form I (prepared as described in Example 1 above) in the organic solvents noted in Example 2, except water, toluene, or heptane, were prepared as follows. Compound A, Form I (5-10 mg) was added to 2 mL HPLC vials and the selected solvent (50 μL) was added. The resulting slurries were stirred at 300 rpm for up to 1 day. At 1 hour and 1 day time-points, a sample of each slurry was placed on an XRPD sample holder and the solvent evaporated under ambient conditions to yield a solid residue which was then analyzed by X-ray powder diffraction.

[4] = Moisture sorption analysis (DVS)
Procedure: The moisture sorption analysis was performed using a Hiden Isochema system Model IGAsorp. The sample was run in a stainless-steel mesh crucible. The sample was initially dried at 60° C. for 30 minutes then the moisture profile was evaluated by monitoring vapor adsorption/desorption over the range of 0 to 90% relative humidity at 25° C. The moisture profile consisted of 2 cycles of vapor adsorption/desorption.

[5] = Hygroscopicity and water solubility by USP methods; conditions: isolated solid, freebase
Procedure: The isolated solid (Compound A, as a freebase) was a white crystalline solid, hygroscopic and insoluble in water as determined by USP methods. […] The XRD for Form I of Compound A differed from the XRD of a sample of the HCl salt of Compound A (e.g., FIG. 15). […] (equivalent to 0.23 mole of water) due to surface water loss and 0.5% between 182° C. and 219° C. due to melting/decomposition (as shown in FIG. 12). This differed from the TGA spectrum of the HCl salt of Compound A (e.g., FIG. 17).

[6] = at the end of a second moisture sorption-desorption cycle

- Relative thermodynamic stability of polymorphs ([1]; as indicated by competitive slurry, hypothesized): most thermodynamically stable polymorph
- Visual Solubility ([2]; 1-Butanol): Dissolve
- Visual Solubility ([2]; Acetone): Dissolve
- Visual Solubility ([2]; Acetonitrile): Dissolve
- Visual Solubility ([2]; Dichloromethane): Dissolve
- Visual Solubility ([2]; Ethanol): Dissolve
- Visual Solubility ([2]; Ethyl Acetate): Dissolve
- Visual Solubility ([2]; Heptane): Suspension
- solubility ([2]; IPA (isopropyl alcohol), IPA): > 5000 µg/mL
- Visual Solubility ([2]; IPA): Dissolve
- Visual Solubility ([2]; Methanol): Dissolve
- Visual Solubility ([2]; MethylEthylKetone (MEK)): Dissolve
- Visual Solubility ([2]; THF): Dissolve
- Visual Solubility ([2]; Toluene): Suspension
- Visual Solubility ([2]; Water): Suspension
- solubility ([2]; methyl ethyl ketone (MEK, 2-butanone), MethylEthylKetone (MEK)): > 5000 µg/mL
- solubility ([2]; 1-Butanol): > 5000 µg/mL
- solubility ([2]; Acetone): > 5000 µg/mL
- solubility ([2]; Acetonitrile): > 5000 µg/mL
- solubility ([2]; Dichloromethane): > 5000 µg/mL
- solubility ([2]; Ethanol): > 5000 µg/mL
- solubility ([2]; Ethyl Acetate): > 5000 µg/mL
- solubility ([2]; Methanol): > 5000 µg/mL
- solubility ([2]; tetrahydrofuran (THF), THF): > 5000 µg/mL
- Saturated Conc. ([3]; 1-Butanol slurry): 90 mg/mL
- Saturated Conc. ([3]; Acetone slurry): 130 mg/mL
- Saturated Conc. ([3]; Acetonitrile slurry): 80 mg/mL
- Saturated Conc. ([3]; DCM (dichloromethane) slurry): 210 mg/mL
- Saturated Conc. ([3]; Ethanol slurry): 110 mg/mL
- Saturated Conc. ([3]; Ethyl Acetate slurry): 120 mg/mL
- Saturated Conc. ([3]; IPA (isopropyl acetate) slurry): 95 mg/mL
- Saturated Conc. ([3]; Methanol slurry): 80 mg/mL
- Saturated Conc. ([3]; THF (tetrahydrofuran) slurry): 420 mg/mL
- XRPD pattern of solids isolated from solvent slurries ([3]; all solvent slurries except THF and DCM): consistent with Form I
- Hygroscopicity by DVS ([4]; 0 to 90% relative humidity at 25° C.): hygroscopic
- Crystalline form upon humidity cycling (XRPD before and after DVS) ([4]; 2 cycles of adsorption/desorption): did not change
- Moisture retained [4, 6]: 1.8%
- Moisture retained, equivalent mole of water [4, 6]: 0.47 mole of water
- Moisture adsorption ([4]; up to 90% RH, 25° C.): 41.8%
- Hygroscopicity [5]: hygroscopic
- Solubility in water [5]: insoluble
Compound: CC1(C)CC=C(c2nc(C3CC(C)(C)OC(C)(C)C3)ccc2NC(=O)c2nc(C#N)c[nH]2)CC1 [Compound A, Form I, 4-cyano-N-[2-(4,4-dimethylcyclohex-1-en-1-yl)-6-(2,2,6,6-tetramethyltetrahydro-2H-pyran-4-yl)pyridine-3-yl]-1H-imidazole-2-carboxamide]

- Time to complete conversion to Form I ([1]; competitive slurry in water at RT (about 20° C.)): 3 days
Compound: CC1(C)CC=C(c2nc(C3CC(C)(C)OC(C)(C)C3)ccc2NC(=O)c2nc(C#N)c[nH]2)CC1 [Compound A, Form II, 4-cyano-N-[2-(4,4-dimethylcyclohex-1-en-1-yl)-6-(2,2,6,6-tetramethyltetrahydro-2H-pyran-4-yl)pyridine-3-yl]-1H-imidazole-2-carboxamide]
